Assay: Storage stability of DHAA in oxidized zucchini puree product, DHAA concentration by TCEP differential absorbance method
Assay type: physicochemical
Experimental: Four zucchini fruits about 6-8 inches long were purchased at a local grocery store. The shelf labeling indicated the fruits were a product of Mexico, as might be expected in Utah during the month of November when this experiment was conducted. Thus the fruit was not locally-grown and probably older (stored longer since picked) than known fresh-picked fruit. It is known that the AAO activity of zucchini fruit decreases during storage after being picked. The epicarp and outer portions of the mesocarp were peeled from the fruits, to the extent that approximately one-half of the weight of each fruit was included in the peelings. 300 grams of peelings were added to a blender with 100 grams purified water and pureed. 20 grams of the puree was removed and reserved for a “blank”. To the remaining puree (380 grams) was added 1.4 grams AA (as pure crystals approximately US mesh size 20-40) and the puree was mixed in the blender about 1 minute. The pH of the puree was measured and found to be 5.2, and a redox test indicated AA reducing activity in the puree. The puree was allowed to stand with periodic brief mixing for 35 minutes. […] A 20 gram portion was removed for a “test.” The blank and test solutions were centrifuged to remove the pulp so that pulp-free solutions could be spectrophotometrically analyzed. 25 uL of each of these solutions were diluted in 10 mL of 0.15 M phosphoric acid diluent, and the absorbance of each was determined using a UV spectrometer at 262 nm wavelength blanked against diluent. 2 mL of each dilution were combined with 2 mL of a TCEP reagent, incubated one hour, and then the absorbance at 262 nm of these solutions were determined as above (TCEP reagent reduces DHAA in the solution to AA; absorbance measurements at wavelengths where AA strongly absorbs, before and after treatment with TCEP, is a method known to practitioners in the art to quantify DHAA concentration by the differential absorption principle). The following absorption values were obtained (TCEP values are corrected for the X2 dilution):
One whole zucchini fruit weighing 235 grams was pureed in 120 mL water in a blender. The pH of the initial zucchini puree was 6.5. At time 0 minutes, 1.0 gram crystalline AA was added. After mixing 30 seconds, the pH was 5.0. At the times indicated in the table below, pH was recorded, iodine indicator redox result was recorded, and/or additional AA in the amounts indicated were added after testing the pH and redox status. The zucchini puree was continuously mixed in the blender during the entire time, and a cap in the top of the blender was left open to allow fresh air to be drawn into the vortex of the puree in the blender.
The product was split into three equal parts. Part 1 was kept in a closed container at room temperature. Part 2 was kept in a closed container at standard refrigerator temperature of 4 degrees C. Part 3 was kept in a closed container at common freezer temperature of minus 20 degrees C. Part 1 was tested immediately for DHAA concentration by the TCEP method previously discussed, and then after overnight storage (approx. 12 hours); Part 2 was tested after overnight storage (approx. 12 hours), and then after 13 days; Part 3 was tested after 13 days. Recovery column is the actual concentration divided by the maximum expected DHAA concentration of 2.4%, expressed as percent.

DHAA Concentration (Example 3 product, Part 1, tested immediately, storage 0 hours): 2.27%
DHAA Concentration (Part 1, closed container, room temperature, 12 hours): 1.68%
DHAA Concentration (Part 2, refrigerator 4 degrees C, 12 hours): 2.14%
DHAA Concentration (Part 2, refrigerator 4 degrees C, 312 hours (13 d)): 1.27%
DHAA Concentration (Part 3, freezer minus 20 degrees C, 312 hours (13 d)): 2.10%
Loss of DHAA on frozen storage (product stored frozen for at least 13 days): minimal loss
SMILES: O=C1O[C@H]([C@@H](O)CO)C(=O)C1=O [DHAA, dehydroascorbic acid]

Source: patent US20150368681A1, “Dehydroascorbic Acid Process” (priority 2014, published 2015)
